Test results: patent publication US20190175528A1, “INHIBITION OF BIOFILM ORGANISMS” (NovaBiotics Limited, priority 2009, published 2019)
Read-outs that look alike come from different tables or passages of the source.

How the values were obtained:
[1] = test system: S. aureus DSM 11729 (MRSA); experiment: microbe, parasite or virus in culture; assay type: cell-based, Staphylococcus aureus
Procedure: (§1) The bacterial inoculum was established by the dilution method from actively-growing cultures in Mueller-Hinton broth, standardized with 0.5 McFarland turbidity standard as described in the CLSI method M26-A.
(§2) To determine the prevention of biofilm formation, both the bacterial inoculum and the antimicrobial agents were added simultaneously to the plates. The plates were incubated at 37° C. for 24 h and the optical density was read at 625 nm on a microtitre plate reader (BioTek Powerwave XS, Winooski, USA). The MIC was obtained as the lowest concentration of antimicrobial showing total inhibition of bacterial growth. […]
(§3) FIC=MICA[combination]/MICA[alone]+MICB[combination]/MICB[alone] […]
(§4) In order to assess for the prevention of biofilm formation by both Gram-positive and Gram-negative bacteria, the bacterial inoculum and antimicrobial agents were added simultaneously in the plates. The range of concentrations of antimicrobial agents was 0-500 μg/ml NP108 and 0-320 μg/ml cysteamine against the Gram-negative bacteria P. aeruginosa ATCC BAA-47 and 0-1000 μg/ml NP108 and 0-320 μg/ml cysteamine against the Gram-positive MRSA.

[2] = test system: P. aeruginosa ATCC BAA-47; experiment: microbe, parasite or virus in culture; assay type: cell-based, Pseudomonas aeruginosa
Procedure: as §1, §2, §3, §4

[3] = test system: P. aeruginosa strains (7); experiment: microbe, parasite or virus in culture; assay type: cell-based, Pseudomonas aeruginosa; settings: agent alone, range over strains
Procedure: as §1
(§5) To determine the prevention of biofilm formation, both the bacterial inoculum and the antimicrobial agents were added simultaneously to the plates. The plates were incubated at 37° C. for 24 h and the optical density was read at 625 nm on a microtitre plate reader (BioTek Powerwave XS, Winooski, USA). The MIC was obtained as the lowest concentration of antimicrobial showing total inhibition of bacterial growth.
(§6) The FIC corresponds to an interaction coefficient indicating whether the combination of antimicrobial agents is synergistic, additive, antagonist or neutral. The FIC is determined by comparing the activity of an agent in combination (MIC of agent A+agent B) with the activity of the agent alone (MIC of agent A or agent B) as follow (Singh et al., 2000):
(§7) FIC=MICA[combination]/MICA[alone]+MICB[combination]/MICB[alone]
(§8) Additive combinations of two antimicrobial agents are indicated by a FIC index of 1, whereas a FIC index <1 indicates synergistic combinations. Neutral combinations would give a FIC between 1 and 4, a FIC index higher than 4 indicates antagonist effects between the two antimicrobial agents.
(§9) Summary of the activity of the tested antimicrobial agents against the Gram-negative P. aeruginosa strains and the Gram-positive Staphylococcus spp. The number into brackets indicates the maximum number of strains tested. MIC: minimum inhibition concentration; MBEC: minimum biofilm eradication concentration; FIC: fractional inhibitory concentration.

Staphylococcus spp (4) = experiment: microbe, parasite or virus in culture; assay type: cell-based; settings: agent alone, range over strains
Procedure: as §1, §5, §6, §7, §8, §9

[4] = test system: Staphylococcus spp (4) biofilm cells; assay type: cell-based; settings: for MBEC, Staphylococcus spp (4): agent alone, biofilm cells
Procedure: (§10) The FIC was also calculated to assess the interaction of two antimicrobial agents in combination against bacterial biofilms. The same formulae applied, using MBEC instead of MIC.
(§11) A total volume of 100 μl bacterial inoculum in Mueller-Hinton was added to each well of 96-well plates (challenge plates) and the plates were incubated at 37° C. for 24 h on a gyrorotary shaking platform (Grant-bio PS-3D, Shepreth, England) at 24 rpm to allow for biofilm formation.
(§12) The challenge plates were then rinsed once with sterile PBS (lx) and two-fold serial dilutions of antimicrobial agents in Mueller-Hinton were added to the challenge plates. The challenge plates were incubated at 37° C. for 24 h on a gyrorotary shaking platform (Grant-bio PS-3D, Shepreth, England) at 24 rpm.
(§13) The supernatants from each of the challenge plates were transferred into fresh plates and the optical density was measured at 625 nm on a microtitre plate reader (BioTek Powerwave XS, Winooski, USA). The MBEC was obtained by the lowest concentration of antimicrobial showing no bacterial growth.
as §9

[5] = test system: Staphylococcus spp (4) persister cells; experiment: Persister cells in biofilms (live/dead staining), summary over strains; assay type: cell-based; settings: agent alone; persister cells
Procedure: (§14) Following transfer of the supernatant from the challenge plates, the biofilms were rinsed once with sterile PBS (lx) and 100 μl of BacLight live/dead fluorescent staining solution (Invitrogen, Paisley, UK) containing 4 μM SYTO9 and 20 μM propidium iodide (PI) in sterile PBS (lx) were added to the wells of the challenge plates. The plates were incubated at room temperature in the dark for 15 min and the fluorescence was read at 485(ex)/528(em) and 485(ex)/645(em) for SYTO9 and PI fluorescence, respectively on a fluorescence microtitre plate reader (BioTek Synergy HT, Winooski, USA) with the sensitivity set at 50 and bottom optics position was selected. Direct observation of the biofilms with an Axiovert 40 fluorescence microscope (Zeiss, Gottingen, Germany) allowed identifying the presence of live and dead bacteria and pictures of the biofilms were taken at 100 to 400-fold magnification.
(§15) The relative viability of persister cells was determined by the live/dead fluorescence measurements ratio and microscopic observations were used to confirm the presence or absence of live cells.
as §9

[6] = test system: P. aeruginosa ATCC BAA-47 (PAO1) biofilm cells; experiment: MBEC against 24 h-old biofilm; assay type: cell-based, Pseudomonas aeruginosa
Procedure: as §10, §11, §12, §13
(§16) The assessment of the activity of NP108 and cysteamine against bacterial biofilms was carried out with 24 h-old biofilms and the activity of both compounds in combination was also determined. The activity of the antimicrobial agents against bacterial biofilms was determined by their activity against the biofilm cells and against the persister cells.

[7] = test system: S. aureus DSM 11729 biofilm cells; assay type: cell-based, Staphylococcus aureus; settings: for MBEC, S. aureus (MRSA) DSM 11729 biofilm cells: agent alone
Procedure: as §10, §11, §12, §13, §16

[8] = test system: P. aeruginosa ATCC BAA-47 (PAO1) persister cells; experiment: Relative viability of persister cells (SYTO9/PI live/dead fluorescence, microscopy); assay type: cell-based, Pseudomonas aeruginosa; settings: agent alone; for activity against persister cells of P. aeruginosa ATCC BAA-47: relative viability remained significant, FIG. 12
Procedure: as §14, §15
The activity of NP108 and cysteamine against the persister cells was assessed using a fluorescence staining method to determine the relative viability of the cells. The nucleic acid-binding fluorescent molecules used were SYTO9 and PI, which penetrate all bacterial cells (green fluorescence) and membrane-disrupted cells (red fluorescence), respectively.

[9] = test system: S. aureus DSM 11729 persister cells; experiment: as above; assay type: cell-based, Staphylococcus aureus; settings: agent alone, at low concentrations; FIG. 18
Procedure: as §14, §15
The activity of NP108 and cysteamine against the persister cells was assessed using a fluorescence staining method to determine the relative viability of the cells. […]

[10] = test system: S. aureus DSM 11729 (MRSA); settings: data not shown; for bactericidal concentration, S. aureus DSM 11729: agent alone
[11] = test system: P. aeruginosa ATCC BAA-47; settings: data not shown; for bactericidal concentration, P. aeruginosa ATCC BAA-47: agent alone
[12] = test system: P. aeruginosa strains (7) biofilm cells; assay type: cell-based, Pseudomonas aeruginosa; settings: agent alone
Procedure: as §10, §11, §12, §13, §9

[13] = test system: P. aeruginosa strains (7) persister cells; experiment: Persister cells in biofilms (live/dead staining), summary over strains; assay type: cell-based, Pseudomonas aeruginosa; settings: agent alone
Procedure: as §14, §15, §9

[14] = test system: P. aeruginosa ATCC27853 biofilm cells; assay type: cell-based, Pseudomonas aeruginosa; settings: agent alone; FIG. 21a
Procedure: as §11, §12, §13

[15] = test system: Gram-positive and Gram-negative persister cells; experiment: Relative viability of persister cells (SYTO9/PI live/dead fluorescence); assay type: cell-based; settings: lowest concentration tested; FIG. 10
Procedure: as §14, §15

[16] = agent alone, prevention of biofilm formation, 24 h

Row | Compound | MIC, P. aeruginosa strains (7) [3] [µg/mL] | MIC, Staphylococcus spp (4) (Staphylococcus spp (4)) [µg/mL] | MBEC, Staphylococcus spp (4) [4] | Persisters, active concentration, Staphylococcus spp (4) [5] | MBEC [alone], P. aeruginosa ATCC BAA-47 biofilm cells ([6]; agent alone) [µg/mL] | MBEC, S. aureus (MRSA) DSM 11729 biofilm cells [7] [µg/mL] | activity against persister cells of P. aeruginosa ATCC BAA-47 [8] | activity against persister cells of S. aureus DSM 11729 [9] | bactericidal concentration, S. aureus DSM 11729 [10] | bactericidal concentration, P. aeruginosa ATCC BAA-47 [11] [µg/mL] | MBEC, P. aeruginosa strains (7) [12] | Persisters, active concentration, P. aeruginosa strains (7) [13] | further results
1 | poly-L-lysine, hydrobromide [NP108] | 31.25 to 500 | 16 to 125 | 125 to 250 µg/mL | >500 µg/mL | > 500 | 125 | lack of activity | lack of activity | 125 µg/mL | 250 | – | – | MIC of NP108 in the presence of cysteamine, S. aureus DSM 11729 ([1]; 320 μg/ml cysteamine added): 15.625 µg/mL; MIC, S. aureus DSM 11729 [1, 16]: 125 µg/mL; MIC of NP108 in the presence of cysteamine, S. aureus DSM 11729 ([1]; in the presence of 40 μg/ml cysteamine): 31.25 µg/mL; MIC, P. aeruginosa ATCC BAA-47 [2, 16]: 62.5 µg/mL; MIC of NP108 in the presence of cysteamine, P. aeruginosa ATCC BAA-47 ([2]; in the presence of 160 μg/ml cysteamine): 31.25 µg/mL; NP108 concentration giving complete inhibition of bacterial growth, P. aeruginosa ATCC BAA-47 biofilm cells ([6]; with 31.25 μg/ml cysteamine): 500 µg/mL; MBEC NP108[combination], P. aeruginosa ATCC BAA-47 biofilm cells ([6]; with 62.5 to 500 μg/ml cysteamine): 250 µg/mL; MBEC NP108[combination], S. aureus DSM 11729 biofilm cells ([7]; with 62.5 μg/ml cysteamine): 31.25 µg/mL; bactericidal concentration of NP108 in combination, S. aureus DSM 11729 ([10]; with ≥80 μg/ml cysteamine): 62.5 µg/mL; bactericidal concentration of NP108 in combination, S. aureus DSM 11729 ([10]; with ≥160 μg/ml cysteamine): 31.25 µg/mL; bactericidal concentration of NP108 in combination, P. aeruginosa ATCC BAA-47 ([11]; with 320 μg/ml cysteamine): 125 µg/mL
2 | N=C(N)NCCC[C@@H](N)C(=O)N[C@H](CCCNC(=N)N)C(=O)N[C@H](CCCNC(=N)N)C(=O)N[C@H](CCCNC(=N)N)C(=O)N[C@H](CCCNC(=N)N)C(=O)N[C@H](CCCNC(=N)N)C(=O)N[C@H](CCCNC(=N)N)C(=O)N[C@H](CCCNC(=N)N)C(=O)N[C@H](CCCNC(=N)N)C(=O)N[C@H](CCCNC(=N)N)C(=O)N[C@H](CCCNC(=N)N)C(=O)N[C@H](CCCNC(=N)N)C(=O)N[C@H](CCCNC(=N)N)C(=O)O [NP339, dRdRdRdRdRdRdRdRdRdRdRdRdR] | 62.5 | 4 to 128 | 156 to 625 µg/mL | – | – | – | – | – | – | – | >5,000 μg/ml | 625 µg/mL | MBEC against biofilms of 3 Staphylococcus species ([4]; FIG. 5, range over 3 species): 156 to 625 µg/mL; MBEC, P. aeruginosa BAA-47 (PAO1); highest dose tested not sufficient to inhibit 100% of the biofilm cells ([6]; agent alone, FIG. 5): > 5 mg/mL; concentration that inhibits the viability of P. aeruginosa BAA-47 (PAO1) persister cells ([8]; FIG. 6, FIG. 8): 625 µg/mL
3 | NCCS [Cysteamine, cysteamine, reference compound] | – | – | >25,000 μg/ml | 6,250-12,500 μg/ml | > 100.00 | 250 | lack of activity | lack of activity | more than 320 μg/ml | > 320 | >5,000 μg/ml | 500-6,250 μg/ml | MIC ([1]; Staphylococcus aureus, agent alone, prevention of biofilm formation, 24 h): > 320 µg/mL; MIC ([2]; Pseudomonas aeruginosa, ATCCBAA47, agent alone, prevention of biofilm formation, 24 h): 320 µg/mL; MIC ([3]; Pseudomonas aeruginosa): 300 to 2500 µg/mL; MIC (Staphylococcus spp (4); Staphylococcus): 300 to 625 µg/mL; MBEC cysteamine[combination], P. aeruginosa ATCC BAA-47 biofilm cells ([6]; with 250 μg/ml NP108): 62.5 µg/mL; MBEC cysteamine[combination], S. aureus DSM 11729 biofilm cells ([7]; with 31.25 μg/ml NP108): 62.5 µg/mL; MBEC alone, P. aeruginosa ATCC27853 [14]: more than 100 mg/ml; concentration that suppressed the viability of Gram-positive and Gram-negative persister cells [15]: ≤ 6.25 mg/mL
